US20230257372A1 (CHONG KUN DANG PHARMACEUTICAL CORP., priority 2020, published 2023)

Columns and labels:
human recombinant HDAC6 = target: T1, human recombinant HDAC6 (Homo sapiens, UniProt Q9UBN7); assay: HDAC6 enzyme activity inhibition (HDAC Fluorimetric Drug Discovery Kit); type: biochemical; settings: for HDAC6 selectivity (fold): HDAC1 IC50 / HDAC6 IC50; for IC50: human recombinant HDAC6, IC50 calculated with GraphPad Prism
T1 construct: purchased Calbiochem Inc. 382180
T1 sequence (Q9UBN7 1-1215): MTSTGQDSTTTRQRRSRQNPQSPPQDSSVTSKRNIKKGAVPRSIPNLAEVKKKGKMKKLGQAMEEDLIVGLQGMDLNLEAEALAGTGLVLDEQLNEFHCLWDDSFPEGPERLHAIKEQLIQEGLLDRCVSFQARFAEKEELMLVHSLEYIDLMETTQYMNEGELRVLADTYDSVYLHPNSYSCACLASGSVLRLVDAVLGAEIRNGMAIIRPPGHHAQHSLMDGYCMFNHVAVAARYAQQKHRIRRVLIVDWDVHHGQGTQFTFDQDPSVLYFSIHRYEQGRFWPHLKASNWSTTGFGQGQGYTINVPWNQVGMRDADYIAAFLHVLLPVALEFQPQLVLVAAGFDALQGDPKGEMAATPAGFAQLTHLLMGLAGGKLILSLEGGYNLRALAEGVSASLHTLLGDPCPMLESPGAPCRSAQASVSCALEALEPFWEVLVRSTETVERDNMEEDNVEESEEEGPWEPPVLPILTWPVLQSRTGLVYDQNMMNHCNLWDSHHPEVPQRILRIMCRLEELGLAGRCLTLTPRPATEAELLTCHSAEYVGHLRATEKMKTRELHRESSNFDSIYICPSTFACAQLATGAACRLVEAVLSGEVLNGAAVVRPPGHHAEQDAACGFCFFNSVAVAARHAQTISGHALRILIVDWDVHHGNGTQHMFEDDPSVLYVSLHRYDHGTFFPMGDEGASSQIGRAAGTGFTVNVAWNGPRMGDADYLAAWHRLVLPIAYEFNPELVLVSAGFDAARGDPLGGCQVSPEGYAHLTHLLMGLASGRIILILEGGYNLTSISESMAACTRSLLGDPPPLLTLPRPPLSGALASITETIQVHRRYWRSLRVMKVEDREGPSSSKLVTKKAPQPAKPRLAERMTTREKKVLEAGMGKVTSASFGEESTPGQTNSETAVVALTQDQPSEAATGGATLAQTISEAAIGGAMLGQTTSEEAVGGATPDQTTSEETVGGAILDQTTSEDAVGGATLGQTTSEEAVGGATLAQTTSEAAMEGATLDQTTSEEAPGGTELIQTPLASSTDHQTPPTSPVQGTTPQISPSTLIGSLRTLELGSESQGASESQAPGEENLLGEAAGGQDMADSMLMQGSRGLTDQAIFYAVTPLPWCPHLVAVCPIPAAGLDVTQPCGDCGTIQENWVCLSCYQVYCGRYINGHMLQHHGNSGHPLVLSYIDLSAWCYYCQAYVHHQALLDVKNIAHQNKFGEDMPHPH
In short: (§1)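 Fluorimetric deacetylase read-out: after 30 min with Developer II following a 60 min, 30° C reaction of recombinant enzyme ([…]) with 10 μM substrate, across five-fold serial compound dilutions.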

human recombinant HDAC1 = target: T2, human recombinant HDAC1 (Homo sapiens, UniProt Q13547); assay: HDAC1 enzyme activity inhibition (HDAC Fluorimetric Drug Discovery Kit); type: biochemical; settings: human recombinant HDAC1; IC50 calculated with GraphPad Prism; read-out: HDAC1
T2 construct: purchased Enzo Life Science, Inc. BML-SE456
In short: as §1

T2 sequence (Q13547 whole entry): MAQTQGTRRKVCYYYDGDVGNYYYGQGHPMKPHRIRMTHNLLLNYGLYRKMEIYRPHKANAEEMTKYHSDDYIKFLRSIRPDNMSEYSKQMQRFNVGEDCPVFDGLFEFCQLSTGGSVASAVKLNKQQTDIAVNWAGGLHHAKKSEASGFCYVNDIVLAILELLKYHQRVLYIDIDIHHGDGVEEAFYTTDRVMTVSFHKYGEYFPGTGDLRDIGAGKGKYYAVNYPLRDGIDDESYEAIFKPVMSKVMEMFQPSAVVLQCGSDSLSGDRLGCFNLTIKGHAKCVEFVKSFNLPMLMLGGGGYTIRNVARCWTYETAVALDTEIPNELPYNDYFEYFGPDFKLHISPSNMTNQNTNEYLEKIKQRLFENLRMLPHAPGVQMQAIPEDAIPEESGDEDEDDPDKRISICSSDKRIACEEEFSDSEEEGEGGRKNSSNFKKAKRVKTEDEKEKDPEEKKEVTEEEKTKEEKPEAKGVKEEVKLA

Row | Structure (SMILES) | HDAC6 selectivity (fold) (human recombinant HDAC6) | IC50 (human recombinant HDAC6) [nM] | IC50 (human recombinant HDAC1) [nM]
1 | CC(C)(F)CN1CCC(c2cn(Cc3ccc(-c4nnc(C(F)F)o4)cn3)nn2)CC1 [Compound 3895, 2-(difluoromethyl)-5-(6-((4-(1-(2-fluoro-2-methylpropyl)piperidin-4-yl)-1H-1,2,3-triazol-1-yl)methyl)pyridin-3-yl)-1,3,4-oxadiazole] | 171 | 293 | > 50000
2 | CCC(F)(CC)CN1CCC(c2cn(Cc3ccc(-c4nnc(C(F)F)o4)cn3)nn2)CC1 [Compound 3896, 2-(difluoromethyl)-5-(6-((4-(1-(2-ethyl-2-fluorobutyl)piperidin-4-yl)-1H-1,2,3-triazol-1-yl)methyl)pyridin-3-yl)-1,3,4-oxadiazole] | 187 | 267 | > 50000
3 | CC(C)(C)OC(=O)N1CC(c2cn(Cc3ccc(-c4nnc(C(F)F)o4)cn3)nn2)C1 [Compound 3926, Tert-butyl 3-(1-((5-(5-(difluoromethyl)-1,3,4-oxadiazol-2-yl)pyridin-2-yl)methyl)-1H-1,2,3-triazol-4-yl)azetidin-1-carboxylate] | 308 | 162 | > 50000
4 | FC(F)c1nnc(-c2ccc(Cn3cnc(Br)c3)nc2)o1 [Compound 3949, 2-(6-((4-bromo-1H-imidazol-1-yl)methyl)pyridin-3-yl)-5-(difluoromethyl)-1,3,4-oxadiazole] | 445 | 112 | > 50000
5 | CCCCN1CC(c2cn(Cc3ccc(-c4nnc(C(F)F)o4)cn3)nn2)C1 [Compound 3953, 2-(6-((4-(1-butylazetidin-3-yl)-1H-1,2,3-triazol-1-yl)methyl)pyridin-3-yl)-5-(difluoromethyl)-1,3,4-oxadiazole] | 100 | 498 | > 50000
6 | FC(F)c1nnc(-c2ccc(Cn3cc(C4CN(C5CCC5)C4)nn3)nc2)o1 [Compound 3954, 2-(6-((4-(1-cyclobutylazetidin-3-yl)-1H-1,2,3-triazol-1-yl)methyl)pyridin-3-yl)-5-(difluoromethyl)-1,3,4-oxadiazole] | 116 | 429 | > 50000
7 | FC(F)c1nnc(-c2ccc(Cn3cc(C4CN(C5COC5)C4)nn3)nc2)o1 [Compound 3955, 2-(difluoromethyl)-5-(6-((4-(1-(oxetan-3-yl)azetidin-3-yl)-1H-1,2,3-triazol-1-yl)methyl)pyridin-3-yl)-1,3,4-oxadiazole] | 95 | 522 | > 50000
8 | CCC(=O)N1CC(c2cn(Cc3ccc(-c4nnc(C(F)F)o4)cn3)nn2)C1 [Compound 3957, 1-(3-(1-((5-(5-(difluoromethyl)-1,3,4-oxadiazol-2-yl)pyridin-2-yl)methyl)-1H-1,2,3-triazol-4-yl)azetidin-1-yl)propan-1-one] | 100 | 496 | > 50000
9 | CC(C)C(=O)N1CC(c2cn(Cc3ccc(-c4nnc(C(F)F)o4)cn3)nn2)C1 [Compound 3958, 1-(3-(1-((5-(5-(difluoromethyl)-1,3,4-oxadiazol-2-yl)pyridin-2-yl)methyl)-1H-1,2,3-triazol-4-yl)azetidin-1-yl)-2-methylpropan-1-one] | 116 | 429 | > 50000
10 | COC(=O)N1CC(c2cn(Cc3ccc(-c4nnc(C(F)F)o4)cn3)nn2)C1 [Compound 3959, Methyl 3-(1-((5-(5-(difluoromethyl)-1,3,4-oxadiazol-2-yl)pyridin-2-yl)methyl)-1H-1,2,3-triazol-4-yl)azetidin-1-carboxylate] | 209 | 239 | > 50000

Now from value to compound:

Row | HDAC6 selectivity (fold) (human recombinant HDAC6) | IC50 (human recombinant HDAC6) [nM] | IC50 (human recombinant HDAC1) [nM] | Structure (SMILES)
11 | 1308 | 38.2 | > 50000 | CN(C)Cc1cccc(-c2cn(Cc3ccc(-c4nnc(C(F)F)o4)cn3)nn2)c1 [Compound 3915, 1-(3-(1-((5-(5-(difluoromethyl)-1,3,4-oxadiazol-2-yl)pyridin-2-yl)methyl)-1H-1,2,3-triazol-4-yl)phenyl)-N,N-dimethylmethanamine]
12 | 1524 | 32.8 | > 50000 | CN1CCN(Cc2cccc(-c3cn(Cc4ccc(-c5nnc(C(F)F)o5)cn4)nn3)c2)CC1 [Compound 3917, 2-(difluoromethyl)-5-(6-((4-(3-((4-methylpiperazin-1-yl)methyl)phenyl)-1H-1,2,3-triazol-1-yl)methyl)pyridin-3-yl)-1,3,4-oxadiazole]
13 | 1190 | 42 | > 50000 | CN(C)CCN(C)Cc1cccc(-c2cn(Cc3ccc(-c4nnc(C(F)F)o4)cn3)nn2)c1 [Compound 3918, N1-(3-(1-((5-(5-(difluoromethyl)-1,3,4-oxadiazol-2-yl)pyridin-2-yl)methyl)-1H-1,2,3-triazol-4-yl)benzyl)-N1,N2,N2-trimethylethane-1,2-diamine]
14 | 1358 | 36.8 | > 50000 | CNCc1cccc(-c2cn(Cc3ccc(-c4nnc(C(F)F)o4)cn3)nn2)c1 [Compound 3919, 1-(3-(1-((5-(5-(difluoromethyl)-1,3,4-oxadiazol-2-yl)pyridin-2-yl)methyl)-1H-1,2,3-triazol-4-yl)phenyl)-N-methylmethanamine]
15 | 258 | 193 | > 50000 | Cc1nc(-c2ccccc2)cn1Cc1ccc(-c2nnc(C(F)F)o2)cn1 [Compound 3945, 2-(difluoromethyl)-5-(6-((2-methyl-4-phenyl-1H-imidazol-1-yl)methyl)pyridin-3-yl)-1,3,4-oxadiazole]
16 | 954 | 52.4 | > 50000 | FC(F)c1nnc(-c2ccc(Cn3cnc(-c4ccccc4)c3)nc2)o1 [Compound 3950, 2-(difluoromethyl)-5-(6-((4-phenyl-1H-imidazol-1-yl)methyl)pyridin-3-yl)-1,3,4-oxadiazole]
17 | 81 | 613 | > 50000 | CCN1CC(c2cn(Cc3ccc(-c4nnc(C(F)F)o4)cn3)nn2)C1 [Compound 3951, 2-(difluoromethyl)-5-(6-((4-(1-ethylazetidin-3-yl)-1H-1,2,3-triazol-1-yl)methyl)pyridin-3-yl)-1,3,4-oxadiazole]
18 | 76 | 653 | > 50000 | CC(C)N1CC(c2cn(Cc3ccc(-c4nnc(C(F)F)o4)cn3)nn2)C1 [Compound 3952, 2-(difluoromethyl)-5-(6-((4-(1-isopropylazetidin-3-yl)-1H-1,2,3-triazol-1-yl)methyl)pyridin-3-yl)-1,3,4-oxadiazole]
19 | 93 | 536 | > 50000 | CC(=O)N1CC(c2cn(Cc3ccc(-c4nnc(C(F)F)o4)cn3)nn2)C1 [Compound 3956, 1-(3-(1-((5-(5-(difluoromethyl)-1,3,4-oxadiazol-2-yl)pyridin-2-yl)methyl)-1H-1,2,3-triazol-4-yl)azetidin-1-yl)ethan-1-one]
20 | 473 | 105 | > 50000 | FC(F)c1nnc(-c2ccc(Cn3cc(-c4cncnc4)nn3)nc2)o1 [Compound 3960, 2-(difluoromethyl)-5-(6-((4-(pyrimidin-5-yl)-1H-1,2,3-triazol-1-yl)methyl)pyridin-3-yl)-1,3,4-oxadiazole]
